These results are taken from patent US20250195357A1, “CLEAR SCALP COMPOSITION WITH DISCRETE PARTICLES” (The Procter & Gamble Company, priority 2022, published 2025).

Series [1] in a line: Solubility of scalp actives. Type of series: physicochemical.
The conditions of series [2]: cited from earlier work.

On to `CC1CCC(C(C)C)C(O)C1` (stereo not shown) [menthol], for which the Oil solubility result in series [1] is recorded as “oil soluble”. For `O=C(O)c1ccccc1O` [salicylic acid], in series [1] (at pH of 4.8 and above), the Water solubility entry is “water soluble”. Turning to `Cc1cc(CC(C)CC(C)(C)C)n(O)c(=O)c1.NCCO` (stereo not shown) [piroctone olamine], the Solubility in water entry in series [2] is “very limited solubility”. Moreover, the Oil solubility entry in series [1] is on record as “oil soluble”.
